{
  "source": "paper PMC8585091",
  "about": "“Central Carbon Metabolism, Sodium-Motive Electron Transfer, and Ammonium Formation by the Vaginal Pathogen Prevotella bivia” (International Journal of Molecular Sciences, 2021)",
  "molecular_target": "T1, cytochrome bd quinol oxidase (Prevotella bivia, UniProt I4Z6X5)",
  "T1 construct": "gene PrebiDRAFT_0174; native complex in DDM-solubilized membranes, not purified; ORFs cyd-2 1143 bp and cyd-1 1536 bp; with Cytochrome bd ubiquinol oxidase subunit II",
  "T1 sequence (I4Z6X5 1-511)": "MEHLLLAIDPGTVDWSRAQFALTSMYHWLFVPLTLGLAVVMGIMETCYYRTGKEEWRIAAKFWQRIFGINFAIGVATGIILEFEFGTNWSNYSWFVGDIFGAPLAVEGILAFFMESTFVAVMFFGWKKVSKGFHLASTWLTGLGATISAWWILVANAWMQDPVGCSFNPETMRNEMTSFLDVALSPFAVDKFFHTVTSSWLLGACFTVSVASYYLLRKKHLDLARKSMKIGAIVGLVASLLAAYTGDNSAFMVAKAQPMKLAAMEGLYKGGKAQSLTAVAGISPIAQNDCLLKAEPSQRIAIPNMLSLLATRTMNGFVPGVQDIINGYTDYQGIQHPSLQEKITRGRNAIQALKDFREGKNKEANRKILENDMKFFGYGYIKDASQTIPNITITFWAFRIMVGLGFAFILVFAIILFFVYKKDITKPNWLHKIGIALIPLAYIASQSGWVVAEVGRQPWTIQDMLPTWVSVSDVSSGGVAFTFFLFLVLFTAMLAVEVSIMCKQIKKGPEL",
  "T1 sequence (I4Z6X4 1-380 partner)": "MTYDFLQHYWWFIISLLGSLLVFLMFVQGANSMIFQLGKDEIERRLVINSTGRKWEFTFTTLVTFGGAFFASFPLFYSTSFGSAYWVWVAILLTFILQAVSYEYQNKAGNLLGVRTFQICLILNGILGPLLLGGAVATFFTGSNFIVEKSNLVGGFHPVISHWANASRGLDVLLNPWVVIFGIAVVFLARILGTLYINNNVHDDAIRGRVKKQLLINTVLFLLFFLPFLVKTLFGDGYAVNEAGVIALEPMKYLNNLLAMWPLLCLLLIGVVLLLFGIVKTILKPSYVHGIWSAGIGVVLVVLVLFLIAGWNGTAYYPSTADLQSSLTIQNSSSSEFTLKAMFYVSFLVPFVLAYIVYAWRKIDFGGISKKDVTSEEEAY",
  "assay": "DMNH2 oxidation with H2O2 (peroxidase activity), double-beam photometer",
  "type": "biochemical",
  "conditions": "solubilized membranes; 200 µM DMNH2, H2O2 as acceptor, pH 7.0, 100 mM NaCl, anoxic",
  "data": [
    {"smiles": "Cc1c(C)c(O)c2ccccc2c1O", "note": "[2,3-dimethyl-1,4-naphthoquinol]", "values": [
      {"measurement": "DMNH2 oxidation with H2O2 (peroxidase activity), double-beam photometer", "result": "Solubilized membranes catalyzed the oxidation of the DMNH2 with H2O2 as an electron acceptor"}
    ]}
  ]
}
